Data: patent publication US20240238425A1, “HSD17B13 Inhibitors and/or Degraders” (Pfizer Inc., priority 2022, published 2024)
Counter-ions that a name gives are not always drawn.

System: HiBiT-HSD17β13 fusion protein (N-terminal HiBiT-tagged HSD17β13 isoform D) in Huh7 HiBiT-HSD17β13 OE cells
Assay: Whole-cell Huh7-HSD17B13 HiBiT assay (degrader potency and maximal efficacy, luminescence readout)
Format: cell-based, human
Conditions: 24 hour incubation, geometric mean, * = geometric mean for all forms tested (parent and salt forms); for DC50: read-out: Huh7_HIBIT-HSD17β13_DC50 GMean DC50; for Huh7_HIBIT-HSD17β13_DC50 GMean Asymptote Maximum: max. concentration 1 μM
Method in brief: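 Huh7 cells stably overexpressing N-terminal HiBiT-tagged HSD17β13 isoform D, clone matched to primary hepatocyte expression, were exposed to an 11-point, 1 in 3.162 dilution series (top 1 μM final) for 24 h at 37° C. Lytic HiBiT luminescence was normalised to DMSO and parental-cell controls; DC50 from four-parameter logistic fit, with CellTiter-Glo counter screen.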

Structure (SMILES)	DC50	Huh7_HIBIT-HSD17β13_DC50 GMean Asymptote Maximum
Cn1c(=O)n(C2CCC(=O)NC2=O)c2ccc(CCN3CCN(c4ncc(-c5ccc6cn([C@H]7CC[C@H](CNC(=O)c8cc(F)c(O)c(F)c8F)CC7)nc6c5)cn4)CC3)cc21 (mixture of isomers) [Example 43, N-{[(1r,4r)-4-(6-{2-[4-(2-{1-[(3RS)-2,6-dioxopiperidin-3-yl]-3-methyl-2-oxo-2,3-dihydro-1H-benzimidazol-5-yl}ethyl)piperazin-1-yl]pyrimidin-5-yl}-2H-indazol-2-yl)cyclohexyl]methyl}-2,3,5-trifluoro-4-hydroxybenzamide, trifluoroacetate salt]	0.29 nM	83%
Cn1c(=O)n(C2CCC(=O)NC2=O)c2ccc(CCN3CCC(F)(Cc4ccc5cn([C@H]6CC[C@H](CNC(=O)c7cc(F)c(O)c(F)c7F)CC6)nc5c4)CC3)cc21 (mixture of isomers) [Example 44, N-{[(1r,4r)-4-(6-{[1-(2-{1-[(3RS)-2,6-dioxopiperidin-3-yl]-3-methyl-2-oxo-2,3-dihydro-1H-benzimidazol-5-yl}ethyl)-4-fluoropiperidin-4-yl]methyl}-2H-indazol-2-yl)cyclohexyl]methyl}-2,3,5-trifluoro-4-hydroxybenzamide, trifluoroacetate salt]	1.5 nM	84%
Cn1c(=O)n(C2CCC(=O)NC2=O)c2ccc(CC3CCN(c4ncc(-c5ccc6cn([C@H]7CC[C@H](CNC(=O)c8cc(F)c(O)c(F)c8F)CC7)nc6c5)cn4)CC3)cc21 (mixture of isomers) [Example 46, N-{[(1r,4r)-4-(6-{2-[4-({1-[(3RS)-2,6-dioxopiperidin-3-yl]-3-methyl-2-oxo-2,3-dihydro-1H-benzimidazol-5-yl}methyl)piperidin-1-yl]pyrimidin-5-yl}-2H-indazol-2-yl)cyclohexyl]methyl}-2,3,5-trifluoro-4-hydroxybenzamide, trifluoroacetate salt]	0.57 nM	84%
Cn1c(=O)n(C2CCC(=O)NC2=O)c2ccc(CN3CCN(c4ccc5cn([C@H]6CC[C@H](CNC(=O)c7cc(F)c(O)c(F)c7F)CC6)nc5c4)CC3)cc21 (mixture of isomers) [Example 51, N-{[(1r,4r)-4-{6-[4-({1-[(3RS)-2,6-dioxopiperidin-3-yl]-3-methyl-2-oxo-2,3-dihydro-1H-benzimidazol-5-yl}methyl)piperazin-1-yl]-1H-indazol-2-yl}cyclohexyl]methyl}-2,3,5-trifluoro-4-hydroxybenzamide, trifluoroacetate salt]	2.1 nM	73%
Cn1c(=O)n(C2CCC(=O)NC2=O)c2cccc(CN3CCN(c4ccc5cn([C@H]6CC[C@H](CNC(=O)c7cc(F)c(O)c(F)c7F)CC6)nc5c4)CC3)c21 (mixture of isomers) [Example 52, N-{[(1r,4r)-4-{6-[4-({1-[(3RS)-2,6-dioxopiperidin-3-yl]-3-methyl-2-oxo-2,3-dihydro-1H-benzimidazol-4-yl}methyl)piperazin-1-yl]-2H-indazol-2-yl}cyclohexyl]methyl}-2,3,5-trifluoro-4-hydroxybenzamide, trifluoroacetate salt]	1.6 nM	80%
Cn1c(=O)n(C2CCC(=O)NC2=O)c2ccc(CCN3CCN(c4ccc(-c5noc([C@]67CC[C@](CNC(=O)c8cc(F)c(O)c(F)c8F)(CC6)CC7)n5)nn4)CC3)cc21 (mixture of isomers) [Example 55, N-{[4-(3-{6-[4-(2-{1-[(3RS)-2,6-dioxopiperidin-3-yl]-3-methyl-2-oxo-2,3-dihydro-1H-benzimidazol-5-yl}ethyl)piperazin-1-yl]pyridazin-3-yl}-1,2,4-oxadiazol-5-yl)bicyclo[2.2.2]octan-1-yl]methyl}-2,3,5-trifluoro-4-hydroxybenzamide, trifluoroacetate salt]	0.49 nM	82%
Cn1c(=O)n(C2CCC(=O)NC2=O)c2cccc(CCN3CCN(c4ccc5cn([C@H]6CC[C@H](CNC(=O)c7cc(F)c(O)c(F)c7F)CC6)nc5c4)CC3)c21 (mixture of isomers) [Example 56, N-{[(1r,4r)-4-{6-[4-(2-{1-[(3RS)-2,6-dioxopiperidin-3-yl]-3-methyl-2-oxo-2,3-dihydro-1H-benzimidazol-4-yl}ethyl)piperazin-1-yl]-2H-indazol-2-yl}cyclohexyl]methyl}-2,3,5-trifluoro-4-hydroxybenzamide, trifluoroacetate salt]	0.64 nM	82%
Cn1c(=O)n(C2CCC(=O)NC2=O)c2ccc(CCN3CCN(c4nccc(-c5nc([C@]67CC[C@](CNC(=O)c8cc(F)c(O)c(F)c8F)(CC6)CC7)no5)n4)CC3)cc21 (mixture of isomers) [Example 60, N-{[4-(5-{2-[4-(2-{1-[(3RS)-2,6-dioxopiperidin-3-yl]-3-methyl-2-oxo-2,3-dihydro-1H-benzimidazol-5-yl}ethyl)piperazin-1-yl]pyrimidin-4-yl}-1,2,4-oxadiazol-3-yl)bicyclo[2.2.2]octan-1-yl]methyl}-2,3,5-trifluoro-4-hydroxybenzamide, trifluoroacetate salt]	0.65 nM	78%
Cn1c(=O)n(C2CCC(=O)NC2=O)c2ccc(CCN3CCC(Cc4ccc5cn([C@H]6CC[C@H](CNC(=O)c7cc(F)c(O)c(F)c7F)CC6)nc5c4)C(F)(F)C3)cc21 (mixture of isomers) [Example 64, N-{[(1r,4r)-4-(6-{[1-(2-{1-[(3RS)-2,6-dioxopiperidin-3-yl]-3-methyl-2-oxo-2,3-dihydro-1H-benzimidazol-5-yl}ethyl)-3,3-difluoropiperidin-4-yl]methyl}-2H-indazol-2-yl)cyclohexyl]methyl}-2,3,5-trifluoro-4-hydroxybenzamide, trifluoroacetate salt]	0.51 nM	85%
Cn1c(=O)n(C2CCC(=O)NC2=O)c2ccc(CCCN3CC(F)(F)CC4(CCN(c5ccc6cn([C@H]7CC[C@H](CNC(=O)c8cc(F)c(O)c(F)c8F)CC7)nc6c5)C4=O)C3)cc21 (mixture of isomers) [Example 65, N-{[(1r,4r)-4-{6-[7-(3-{1-[(3RS)-2,6-dioxopiperidin-3-yl]-3-methyl-2-oxo-2,3-dihydro-1H-benzimidazol-5-yl}propyl)-9,9-difluoro-1-oxo-2,7-diazaspiro[4.5]decan-2-yl]-2H-indazol-2-yl}cyclohexyl]methyl}-2,3,5-trifluoro-4-hydroxybenzamide, trifluoroacetate salt]	3.8 nM	81%
Cn1c(=O)n(C2CCC(=O)NC2=O)c2ccc(CCCN3CCN(c4ccc(-c5nc([C@]67CC[C@](CNC(=O)c8cc(F)c(O)c(F)c8F)(CC6)CC7)no5)nn4)CC3)cc21 (mixture of isomers) [Example 66, N-{[4-(5-{6-[4-(3-{1-[(3RS)-2,6-dioxopiperidin-3-yl]-3-methyl-2-oxo-2,3-dihydro-1H-benzimidazol-5-yl}propyl)piperazin-1-yl]pyridazin-3-yl}-1,2,4-oxadiazol-3-yl)bicyclo[2.2.2]octan-1-yl]methyl}-2,3,5-trifluoro-4-hydroxybenzamide, trifluoroacetate salt]	0.32 nM	75%
Cn1c(=O)n(C2CCC(=O)NC2=O)c2ccc(CCCN3CCN(c4ncc(-c5nc([C@]67CC[C@](CNC(=O)c8cc(F)c(O)c(F)c8F)(CC6)CC7)no5)cn4)CC3)cc21 (mixture of isomers) [Example 67, N-{[4-(5-{2-[4-(3-{1-[(3RS)-2,6-dioxopiperidin-3-yl]-3-methyl-2-oxo-2,3-dihydro-1H-benzimidazol-5-yl}propyl)piperazin-1-yl]pyrimidin-5-yl}-1,2,4-oxadiazol-3-yl)bicyclo[2.2.2]octan-1-yl]methyl}-2,3,5-trifluoro-4-hydroxybenzamide, trifluoroacetate salt]	0.18 nM	89%
Cn1c(=O)n(C2CCC(=O)NC2=O)c2ccc(CCCN3CCN(c4cnc(-c5nc([C@]67CC[C@](CNC(=O)c8cc(F)c(O)c(F)c8F)(CC6)CC7)no5)cn4)CC3)cc21 (mixture of isomers) [Example 69, N-{[4-(5-{5-[4-(3-{1-[(3RS)-2,6-dioxopiperidin-3-yl]-3-methyl-2-oxo-2,3-dihydro-1H-benzimidazol-5-yl}propyl)piperazin-1-yl]pyrazin-2-yl}-1,2,4-oxadiazol-3-yl)bicyclo[2.2.2]octan-1-yl]methyl}-2,3,5-trifluoro-4-hydroxybenzamide, trifluoroacetate salt]	0.16 nM	88%
Cn1c(=O)n(C2CCC(=O)NC2=O)c2ccc(CCN3CCOC4(CCN(c5ccc6cn([C@H]7CC[C@H](CNC(=O)c8cc(F)c(O)c(F)c8F)CC7)nc6c5)CC4)C3)cc21 (mixture of isomers) [Example 74, N-{[(1r,4r)-4-{6-[4-(2-{1-[(3RS)-2,6-dioxopiperidin-3-yl]-3-methyl-2-oxo-2,3-dihydro-1H-benzimidazol-5-yl}ethyl)-1-oxa-4,9-diazaspiro[5.5]undecan-9-yl]-2H-indazol-2-yl}cyclohexyl]methyl}-2,3,5-trifluoro-4-hydroxybenzamide, trifluoroacetate salt]	0.23 nM	87%
Cn1c(=O)n(C2CCC(=O)NC2=O)c2ccc(CCCN3CCOC4(CCN(c5ccc6cn([C@H]7CC[C@H](CNC(=O)c8cc(F)c(O)c(F)c8F)CC7)nc6c5)CC4)C3)cc21 (mixture of isomers) [Example 75, N-{[(1r,4r)-4-{6-[4-(3-{1-[(3RS)-2,6-dioxopiperidin-3-yl]-3-methyl-2-oxo-2,3-dihydro-1H-benzimidazol-5-yl}propyl)-1-oxa-4,9-diazaspiro[5.5]undecan-9-yl]-2H-indazol-2-yl}cyclohexyl]methyl}-2,3,5-trifluoro-4-hydroxybenzamide, trifluoroacetate salt]	0.19 nM	88%
